The results in this text go back to patent US20260256790A1, “DEBIO-0123 IN COMBINATION WITH TEMOZOLOMIDE AND RADIOTHERAPY FOR USE IN TREATING GLIOMA” (Debiopharm International S.A., priority 2023, published 2026).

Data set [1] can be described thus: Plasma and brain concentrations (PK) in healthy mice after oral dosing. It counts as in vivo, Nu/Nu mice. The settings on record: 30 mg/kg, oral; for Kp / Cmax / AUC(0-inf) / AUC(0-t): male, Nu/Nu, mouse, po; for Kp: brain/plasma; for Cmax / AUC(0-inf) / AUC(0-t): plasma; for AUC(0-inf): read-out: AUCInf, plasma; for AUC(0-t): read-out: AUCLast, plasma. As for the experimental part:
Healthy male Nu/Nu mice were treated orally with either (i) a single dose of 30 mg/kg Compound of formula (I) ([…], 3 mice per time-point), (ii) 30 mg/kg of Compound of formula (I) given once a day for four consecutive days (27 mice in total, 3 mice per time-point), (iii) 30 mg/kg of AZD-1775 (adavosertib, purchased from Combi-Blocks, San Diego, USA) given twice a day for three consecutive days and once on day four (27 mice in total, 3 mice per time-point), (iv) or 80 mg/kg of Zn-c3 (purchased from EOS Med Chem, Jina City, China) given once a day for four consecutive days (27 mice in total, 3 mice per time-point). The doses used for each compound have previously been reported as active dose levels. Compound of formula (I) was formulated as a suspension in 0.5% methylcellulose with 1% Tween 80 and administered at a concentration of 3.0 mg/mL. […] The dosing volume of all formulations was 10 mL/kg. At designated time-points the mice were euthanized by carbon dioxide inhalation, blood samples were collected by cardiac puncture into K2EDTA containing tubes. The tubes were inverted several times, placed on ice and centrifuged within 30 min of collection (4° C. for 5 min at 6000 rpm) to obtain plasma. The plasma samples were snap frozen in dry ice and stored at −80° C. until analysis. The brain was collected, weighed and snap frozen in dry ice until further analysis. To obtain brain homogenates, firstly water was added to each brain (brain weight:water volume=1:4) then the brain was homogenized with a H-speed dispersator (time procedure: homogenizing for 10 s and interval of 10 s per time, total 3-5 times; cleaning procedure for dispersator: Water-Methanol-Ethanol-Water, 10 s each). The brain homogenate samples were transferred to individual tubes and stored at −80° C. prior to analysis. The mouse plasma and brain samples were analysed as follows. For each analytical batch of plasma and brain samples, the standard and quality control (QC) samples were freshly prepared in blank male Nu/Nu mouse plasma (with K2EDTA anticoagulant) and brain homogenate. To an aliquot of each standard, QC, control blank and study samples, internal standard (^13CD6-Compound of formula (I) for Compound of formula (I), terfenadine for AZD-1775 and Zn-c3) in methanol/acetonitrile (1:1, v/v) was added. The samples were mixed for 1 minute and centrifuged at 4000 rpm at 4° C. for 15 minutes. Supernatants were transferred and diluted in MeOH/water (1:1, v/v, with 0.1% FA) prior to LC-MS/MS injection. Chromatographic separation was achieved on an Shimadzu LC-20AD using a Kinetex 2.6μ C18 100A column (50 mm*3.00 mm) for Compound of formula (I) and AZD-1775 samples and a ACE 5 C4 column (50 mm*2.1 mm) for Zn-c3 samples with gradient elution using the following conditions: flow rate: 0.7 mL/min; run time: 3.0 min; mobile phase: A: 5 mM NH4OAc (0.1% FA), B: Acetonitrile (0.1% FA). Detection was accomplished with an AB Sciex 5500 utilizing electrospray MS/MS in positive ion multiple reaction monitoring mode (MRM). The MRM channels were 511.29/98 for Compound of formula (I), 501.47/442.20 for AZD-1775 and 527.36/468.10 for Zn-c3. The MRM channels of internal standard were 518.17/102.10 (^13CD6-Compound of formula (I)) for Compound of formula (I), 472.40/436.40 (terfenadine) for AZD-1775 and Zn-c3. The measured plasma and brain concentrations at each time-point, the nominal sample collection time, and intended dosages were used for pharmacokinetic analysis. The PK parameters of all study compounds were determined by non-compartmental analysis using WinNonlin Version 8.0 (Pharsight).

Data set [2] relates to T98G GBM cell line. In words: Colony formation with radiotherapy, T98G. The settings on record: 0.1 μM to 5.0 μM, irradiated at 1, 2 and 4 Gy, p<0.0001. It counts as cell-based. The procedure: (§1) GBM tumor cells (T98G, LN18, SNB-19 and U251) were grown as an adherent monolayer at 37° C. in a humidified atmosphere (5% CO2, 95% air). For experimental use, tumor cells were detached from culture flasks by a 5-minute treatment with trypsin-versene, in Hanks' medium without calcium or magnesium and neutralized by addition of complete culture medium. Cells were counted and viability assessed using a 0.25% trypan blue exclusion assay. All cell lines were appropriately seeded following the conditions for monolayer colony formation in 6-well plates (Ref #152795, Nunc, Dutscher) in 1.9 ml of cell culture medium, at 3 densities for evaluation of a proclonogenic effect. […]
(§2) Treatments were performed at 24 hours (D1) after seeding by addition of ×20 concentrated compound or vehicle solutions, to obtain final concentrations of 0.1 μM to 5.0 μM of Compound of formula (I) [referred to as CoF (I) in FIG. 3]. […] After 14 days of incubation, colonies were counted after being stained through incubation with 500 μl of a solution of water containing 0.05% (w/v) of methylene blue (Ref. M4159, Sigma) for 2 hours. Colonies were counted using a colony counter pen (Ref #045855, Dutscher, Brumath, France). The Surviving Fraction was calculated for each condition using the equations described below and plotted on a semi-logarithmic graph using the Linear-Quadratic model. […]

The test system of data set [3] is LN18 GBM cell line. In words: Colony formation with radiotherapy, LN18. In kind it is cell-based. The settings on record: 0.1 μM to 5.0 μM, irradiated at 1, 2 and 4 Gy, p<0.0001. As for the experimental part: as §1, §2
Data set [4] concerns SNB-19 GBM cell line. In words: Colony formation with radiotherapy, SNB-19. It counts as cell-based. Particulars: SNB19; 0.1 μM to 5.0 μM; irradiated at 1, 2 and 4 Gy; p<0.0001. As for the experimental part:
as §1, §2

Molecules are shown by their SMILES. Like-named read-outs stand apart in the source and are kept apart here.

Usually Cmax stands for the peak of the concentration-time curve. Turning to `Cc1cc(Nc2ncc3c(n2)N(C)CN(c2c(Cl)cccc2Cl)C3=O)ccc1C1CCN(C)CC1` [Compound of formula (I)], the “AUCInf, brain” value in data set [1] (qd for four days, day 4) was 31763 ng·h/g; in data set [1] (single dose, day 1) it was 37471 ng·h/g. Besides, the “AUCLast, brain” value in data set [1] (qd for four days, day 4) came to 31610 ng·h/g; in data set [1] (single dose, day 1), 37368 ng·h/g. The “Cmax, brain” value is reported as 1963 ng/g in data set [1] (qd for four days, day 4) and 3557 ng/g in data set [1] (single dose, day 1). Further, the Kp is 0.489 in data set [1] (qd for four days, day 4, read-out: Brain to plasma ratio based on AUCInf); 0.488 in data set [1] (qd for four days, day 4, read-out: Brain to plasma ratio based on AUCLast); 0.498 in data set [1] (qd for four days, day 4, read-out: Brain to plasma ratio based on Cmax); 0.44 in data set [1] (single dose, day 1, read-out: Brain to plasma ratio based on AUCInf); 0.439 in data set [1] (single dose, day 1, read-out: Brain to plasma ratio based on AUCLast); 0.505 in data set [1] (single dose, day 1, read-out: Brain to plasma ratio based on Cmax). The Cmax in data set [1] (qd for four days, day 4) is 3940 ng/mL; in data set [1] (single dose, day 1), 7040 ng/mL. The AUC(0-inf) in data set [1] (qd for four days, day 4) was 65000 ng·h/mL; in data set [1] (single dose, day 1), 85200 ng·h/mL. Moreover, the AUC(0-t) in data set [1] (qd for four days, day 4) came to 64800 ng·h/mL; in data set [1] (single dose, day 1) it was 85100 ng·h/mL. For the same molecule, the “Effect on radiotherapy (surviving fraction, colony formation)” value in data set [2], in data set [3] and in data set [4] was “significantly increased effect of radiotherapy” throughout.
